Tests used:
[1] = system: wild-type human tau; experiment: Western blot of tau levels in HeLa cells transfected with wild-type human tau; assay type: cell-based; conditions: treated 24 hours; for phosphorylated (pS199-202) wild type tau level: HeLa cells transfected with wild-type human tau, various doses, pS199-202 antibody; for C-terminal tau level (Tau 46 antibody) / N-terminal tau level (Tau H-150 antibody): human tau transfected HeLa cells, wild type and P301L not distinguished
Description: (§1) Compounds effects on tau activity/level were determine by a previously described method (Jinwal et al J. Neurosci. 2009 Sep. 30; 29(39):12079-88). In brief, human tau transfected HeLa Cells were treated with Compounds for 24 hours. Cells were harvested by using MPER reagent containing protease inhibitor and phosphatase inhibitor. Samples were analyzed by western blot. pS199-202 antibody was used to detect phospho tau level. Total tau levels were detected by tau H-150 &/or tau 46 antibodies.
(§2) HeLa cells were transfected with wild-type human tau (A) and mutant P301L human tau (B) (FIG. 1). After 24 hours, cells were treated with either palmadorin M or beauvericin for 24 hours.

[2] = system: mutant P301L human tau; experiment: Western blot of tau levels in HeLa cells transfected with mutant P301L human tau; assay type: cell-based; conditions: treated 24 hours, various doses, pS199-202 antibody
Description: as §1, §2

## C=C1CC[C@@H]2C(C)(C)CCC[C@]2(C)[C@@H]1CC/C(C)=C/C(=O)OC(CO)CO [palmadorin M]
[1]
  phosphorylated (pS199-202) wild type tau level: potent reduction
  C-terminal tau level (Tau 46 antibody): moderate change in tau level
  N-terminal tau level (Tau H-150 antibody): increase in tau level
[2]
  phosphorylated (pS199-202) mutant P301L tau level: potent reduction

## CC(C)[C@H]1OC(=O)[C@H](Cc2ccccc2)N(C)C(=O)[C@@H](C(C)C)OC(=O)[C@H](Cc2ccccc2)N(C)C(=O)[C@@H](C(C)C)OC(=O)[C@H](Cc2ccccc2)N(C)C1=O [beauvericin]
[1]
  phosphorylated (pS199-202) wild type tau level: potent reduction
  C-terminal tau level (Tau 46 antibody): moderate change in tau level
  N-terminal tau level (Tau H-150 antibody): increase in tau level
[2]
  phosphorylated (pS199-202) mutant P301L tau level: potent reduction

— patent US20150306068A1, “COMPOUNDS AND RELATED METHODS FOR TREATMENT OF NEURODEGENERATIVE DISEASES” (priority 2013, published 2015)
